Tests used:
[1] = molecular target: T1, Bovine Carbonic Anhydrase (Bos taurus, UniProt P00921); assay: Evaluation of binding ability of hydrochlorothiazide on CA-immobilized chip by surface plasmon resonance (Example 2); conditions: 50 μM in 1×PBS pH 7.4
T1 construct: purchased SIGMA
Method: (§1) The solution in the measurement chip was removed, and the dielectric block was covered with silicone rubber to prepare a cell having an internal volume of 15 μl. The silicone rubber cover was provided with two pores with diameters of 1 mm, and a teflon tube (i.d.: 0.5 mm; o.d.: 1 mm) was allowed to path therethrough to prepare a flow channel system. The chip provided with such flow channel system was mounted on the surface plasmon resonance measurement device of the present invention. Hereafter, liquid exchange was carried out by pouring 500 μl of liquid for 5 seconds.
The flow channel was filled with 70 μl of a mixed solution of 200 mM EDC (N-ethyl-N′-(3-dimethylaminopropyl)carbodiimide hydrochloride) and 50 mM NHS (N-hydroxysuccinimide), and was then allowed to stand for 10 minutes. After the liquid exchange was carried out twice with 100 μl of Acetate 5.0 buffer (BIAcore), the liquid was exchanged with the acetate 5.0 solution containing Bovine Carbonic Anhydrase (hereinafter referred to as CA) (SIGMA) with the concentration shown in Table 2, and the resultant was allowed to stand for a certain period to immobilize CA. The inside of the chip was exchanged with 1 M ethanolamine solution and was then allowed to stand for 10 minutes. The interior of the chip was exchanged twice with 100 μl of Acetate 5.0 buffer to prepare CA-immobilized chip. The amount of the immobilized proteins was determined based on changes in signal intensities before and after CA immobilization. Also, the period for adding CA solution is changed, and the minimum period necessary to achieve the immobilized CA amount of 3000 RU or more was determined.
The flow channel system of the CA-immobilized chips, the amount of CA immobilized thereto was approximately 3,000 RU, was filled with 1×PBS buffer (pH 7.4). Based on the signal intensity before liquid exchange, changes in the signal intensity were measured at intervals of 0.5 seconds. The content of the flow channel system was exchanged with a hydrochlorothiazide solution (Sigma) (dissolved in 1×PBS (pH 7.4) to result in 50 μM therein). Changes in signal intensities were determined from 5 seconds before the initiation of the exchange to 2 minutes after the exchange.

[2] = molecular target: Carbonic anhydrase (Bos taurus, UniProt P00921); assay: Evaluation of binding ability of hydrochlorothiazide on CA-immobilized chip by surface plasmon resonance (Example 1); conditions: 50 μM in 1×PBS pH 7.4
Carbonic anhydrase, sequence (P00921 whole entry): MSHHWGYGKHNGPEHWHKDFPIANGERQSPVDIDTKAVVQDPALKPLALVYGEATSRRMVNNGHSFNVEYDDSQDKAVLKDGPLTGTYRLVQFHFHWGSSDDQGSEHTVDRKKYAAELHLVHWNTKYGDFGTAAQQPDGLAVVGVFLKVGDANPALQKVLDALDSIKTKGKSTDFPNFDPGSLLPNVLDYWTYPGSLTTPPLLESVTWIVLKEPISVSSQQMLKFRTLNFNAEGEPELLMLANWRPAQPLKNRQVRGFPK
Method: as §1
The flow channel was filled with 70 μl of a mixed solution of 200 mM EDC (N-ethyl-N′-(3-dimethylaminopropyl)carbodiimide hydrochloride) and 50 mM NHS (N-hydroxysuccinimide), and was then allowed to stand for 10 minutes. […] The amount of the immobilized proteins was determined based on changes in signal intensities before and after protein immobilization.
[…] Based on the signal intensity before liquid exchange, changes in the signal intensity were measured at intervals of 0.5 seconds. […] Changes in signal intensities were determined from 5 seconds before the initiation of the exchange to 2 minutes after the exchange.

T1 sequence (P00921 whole entry): as above

Hydrochlorothiazide Binding amount ([1]; Level 2: dextran 15% by weight chip, CA 200 μg/ml): −15 RU | Hydrochlorothiazide Binding amount ([1]; Level 3: dextran 25% by weight chip, CA 20 μg/ml): 2 RU | Hydrochlorothiazide Binding amount ([1]; Level 4: dextran 25% by weight chip, CA 200 μg/ml): −30 RU | Hydrochlorothiazide Binding amount ([1]; Level 5: amylose 10% by weight chip, CA 20 μg/ml): 17 RU | Hydrochlorothiazide Binding amount ([1]; Level 6: amylose 10% by weight chip, CA 200 μg/ml): 11 RU | Hydrochlorothiazide Binding amount ([1]; Level 7: amylose 15% by weight chip, CA 20 μg/ml): 15 RU | Hydrochlorothiazide Binding amount ([1]; Level 8: amylose 15% by weight chip, CA 200 μg/ml): 10 RU | Hydrochlorothiazide Binding amount ([2]; Level 1: dextran (branched) chip, carbonic anhydrase immobilized 1500 RU): 5 RU | Hydrochlorothiazide Binding amount ([2]; Level 5: pullulan (linear) chip, carbonic anhydrase immobilized 2500 RU): 10 RU
SMILES: NS(=O)(=O)c1cc2c(cc1Cl)NCNS2(=O)=O [Hydrochlorothiazide, hydrochlorothiazide]

From US20070117152A1, “Biosensor” (FUJIFILM Corporation, priority 2005, published 2007)
